Test [1] has as its system E. coli JW3193 ΔNanT expressing SaSiaT. In words: Growth of E. coli JW3193 ΔNanT expressing SaSiaT. The conditions noted are these: for effect on growth on sialic acid: 0.5 mM sialic acid + 1 mM inhibitor; for growth with inhibitor as only carbon source: 1 mM inhibitor. It counts as cell-based, Escherichia coli. An excerpt: (§1) To further investigate bacterial growth inhibition, we employed a model system of E. coli JW3193 ΔNanT expressing the SaSiaT and PmSiaT transporters. We designed these experiments to test if compounds 3e and 3f could inhibit the Neu5Ac transport in vivo because, without an active sialic acid transporter, E. coli JW3193 ΔNanT cannot grow on Neu5Ac.[16],[21]
(§2) For the bacterial growth experiments, the pJ422-01 plasmid containing the relevant SiaT or NanT gene was transformed into the E. coli JW3193 ΔnanT strain.[21] Throughout the experiments, strains containing the pJ422-01 plasmid were grown in media supplemented with 25 μg/mL Zeocin. E. coli BW25113, empty E. coli JW3193, and E. coli JW3193 with pJ422-01 containing the NanT gene were also used as controls. Strains were initially plated out from glycerol stocks before a single colony was picked and grown overnight in low salt LB media at 37 °C, with shaking at 180 rpm. Overnight cultures were diluted to an OD600 of 0.05 using low salt LB [supplemented with 1 mM isopropyl β-D-1-thiogalactopyranoside (IPTG)], before they were incubated at 37 °C, with shaking at 250 rpm, until they reached an OD600 of 0.3. At this point, 5 mL of each culture was centrifuged at 6000g for 5 min at 25 °C. The supernatants were removed and the cell pellets were resuspended in 5 mL of M9 MM without glucose prior to being centrifuged again at 6000g for 5 min at 25 °C. This wash step was repeated twice more before cells were resuspended to an OD600 of 0.5 in M9 MM without glucose. A Corning Costar Flat Bottom 96 Well TC-treated microplate was set up with 180 μL of M9 MM containing 1 mM IPTG (for the pJ422-01 strains) and either 5 mM glucose, 0.5 mM sialic acid, and 0.5 mM sialic acid with 1 mM of either inhibitor, or 1 mM of either inhibitor as a carbon source. To the 180 μL of media, 20 μL of each culture were added to the plate (OD600 of 0.05), before it was loaded into a FLUOstar Omega microplate reader (BMG Labtech). Growth was recorded at 600 nm every 10 min at 37 °C, with shaking at 300 rpm. Growth curves represent the mean and standard deviation of measurement from triplicate measurements (glucose/no carbon source in duplicate).
Fig. S5. Growth of E. coli JW3193 ΔNanT expressing the SaSiaT and PmSiaT transporters from a plasmid and using various carbon sources and in the presence or absence of inhibitors, 3e and 3f. (A) SaSiaT is expressed from a plasmid in the E. coli strain JW3193 ΔNanT, where the native sialic acid transporter (NanT) is deleted. The strain grows normally when in media with glucose (black line). There is no growth in the absence of any carbon source (grey line). In the presence of sialic acid at 0.5 mM the strain grows to an OD of ~0.5 (red line), showing that the transporter is functional. There is no growth in the […]

For test [2], the system named is E. coli JW3193 ΔNanT expressing PmSiaT. Nature of the test: Growth of E. coli JW3193 ΔNanT expressing PmSiaT. The test is classed as cell-based, Escherichia coli. The conditions noted are these: for effect on growth on sialic acid: 0.5 mM sialic acid + 1 mM inhibitor; for growth with inhibitor as only carbon source: 1 mM inhibitor.
From the text: as §1, §2
Fig. S5. Growth of E. coli JW3193 ΔNanT expressing the SaSiaT and PmSiaT transporters from a plasmid and using various carbon sources and in the presence or absence of inhibitors, 3e and 3f. […]
(B) PmSiaT is again expressed from a plasmid in the E. coli strain JW3193 ΔNanT, where the native sialic acid transporter (NanT) is deleted. The strain grows normally when in media with glucose (black line). There is no growth in the absence of any carbon source (grey line). In the presence of sialic acid at 0.5 mM the strain grows to an OD of ~0.5 (red line), showing that the transporter is functional. […]
substrates. […]

The structures appear in SMILES notation. “Also recorded” adds a separate entry of the source.

We go through 2 compounds from PMC9295122, “Sialic Acid Derivatives Inhibit SiaT Transporters and Delay Bacterial Growth” (ACS Chemical Biology, 2022).

Regarding `CC(=O)NC1C(OCc2cc(F)cc(F)c2)CC(O)(C(=O)O)OC1C(O)C(O)CO` (centres unmarked) [Compound 3e], in test [1], the “effect on growth on sialic acid” value was “no effect on growth; also recorded: neither inhibitor seemed to alter bacterial growth” and the “growth with inhibitor as only carbon source” value (“growth with inhibitor” for short) was “no growth”. For the same compound, in test [2], the “effect on growth on sialic acid” value is “no effect on growth; also recorded: neither inhibitor seemed to alter bacterial growth” and the “growth with inhibitor” value is given as “no growth”.
For `CC(=O)NC1C(OCc2cc(Br)cc(Br)c2)CC(O)(C(=O)O)OC1C(O)C(O)CO` (centres unmarked) [Compound 3f], in test [1], the “effect on growth on sialic acid” value is recorded as “no effect on growth; also recorded: neither inhibitor seemed to alter bacterial growth” and the “growth with inhibitor” value was “no growth”. Also, in test [2], the “effect on growth on sialic acid” value is “no effect on growth; also recorded: neither inhibitor seemed to alter bacterial growth” and the “growth with inhibitor” value was “no growth”.
